In patent publication US20100144755A1 (Glaxo Group Limited, priority 2006, published 2010):

Tested on: influx of neutrophils to the lung in LPS-challenged rats
Assay: Rat LPS neutrophilia model
Type: in vivo
Conditions: LPS aerosol, intratracheal dosing, in at least one of the range of conditions tested, significance p<0.05
Description: Rat LPS Neutrophilia Model
The effect of compounds on the influx of neutrophils to the lung in LPS-challenged rats is evaluated as follows. The test compound is suspended in one of the following solutions: 0.5% tween 80/PBS, 0.5% tween 80/saline, 10% EtOH/saline (with pH adjusted to 2.0, or 8.0 with HCl, or unadjusted), Saline @pH 2.0, 6.5 or 8.0, 0.5% Tragacanth, 1% DMSO/20% Encapsin/Saline, or acidified 5% Tragacanth. The suspension process may be aided by the use of a glass homogenizer. For intratracheal administration, the animals are anesthetized with inhaled isoflurane and placed in a supine position, the trachea is intubated with a steel gavage needle (1.5 inch, 22 gauge, small ball) or a Penn-Century Microsprayer Aerosolizer (model IA-1B) and 200 ul of dosing solution is delivered. The animals are visually monitored during the recovery process, which typically occurs within two minutes. It is noted that the test compounds may be alternatively administered via the microsprayer in a dry powder blend with a suitable excipient, such as lactose.
Rats treated with compound or vehicle (15 min-24 hours pretreatment) are exposed to an LPS aerosol (100 ug/ml) for 15 min. Four hours later the rats are euthanized with pentobarbital (100 mg/kg, i.p.) and the airways are lavaged with 5 washes of 5 ml of phosphate buffered saline. The harvested cells are stained (Diffquick) and counted to determine total and differential cell data. […] Inhibition of neutrophil levels relative to no compound controls is calculated based on the differential counts.
The data is obtained as % inhibition using a particular concentration and pretreat time.

Row | SMILES | inhibition of neutrophilia
1 | Cc1ccc(C(=O)NC(C)C)cc1-c1nc(N2CCC(N3CCC(C)CC3)CC2)nc2c1ccc(=O)n2-c1c(F)cccc1F [163(c), 3-[8-(2,6-difluorophenyl)-2-(4-methyl-1,4′-bipiperidin-1′-yl)-7-oxo-7,8-dihydropyrido[2,3-d]pyrimidin-4-yl]-4-methyl-N-(1-methylethyl)benzamide] | statistically nonsignificant inhibition
2 | CCN(CC)CCCNc1nc(-c2cc(C(=O)N[C@@H](C)c3ccccc3)ccc2C)c2ccc(=O)n(-c3c(F)cccc3F)c2n1 [Example 149, 3-[2-{[3-(diethylamino)propyl]amino}-8-(2,6-difluorophenyl)-7-oxo-7,8-dihydropyrido[2,3-d]pyrimidin-4-yl]-4-methyl-N-[(1S)-1-phenylethyl]benzamide] | inactive
3 | CCCNC(=O)c1ccc(C)c(-c2nc(NCCNC)nc3c2ccc(=O)n3-c2c(F)cccc2F)c1 [56(d), 3-(8-(2,6-difluorophenyl)-2-{[2-(methylamino)ethyl]amino}-7-oxo-7,8-dihydropyrido[2,3-d]pyrimidin-4-yl)-4-methyl-N-propylbenzamide] | statistically significant inhibition
4 | CCN(CC)CCCNc1nc(-c2cc(C(=O)NCC(F)(F)F)ccc2C)c2ccc(=O)n(-c3c(F)cccc3F)c2n1 [Example 128, 3-[2-{[3-(diethylamino)propyl]amino}-8-(2,6-difluorophenyl)-7-oxo-7,8-dihydropyrido[2,3-d]pyrimidin-4-yl]-4-methyl-N-(2,2,2-trifluoroethyl)benzamide] | inactive
5 | Cc1ccc(C(=O)Nc2nccs2)cc1-c1nc(N2CCC(N)CC2)nc2c1ccc(=O)n2-c1c(F)cccc1F [Example 73, 3-[2-(4-amino-1-piperidinyl)-8-(2,6-difluorophenyl)-7-oxo-7,8-dihydropyrido[2,3-d]pyrimidin-4-yl]-4-methyl-N-1,3-thiazol-2-ylbenzamide] | statistically significant inhibition
6 | Cc1ccc(C(=O)Nc2nccs2)cc1-c1nc(NC2CC(C)(C)NC(C)(C)C2)nc2c1ccc(=O)n2-c1c(F)cccc1F [Example 67, 3-{8-(2,6-difluorophenyl)-7-oxo-2-[(2,2,6,6-tetramethyl-4-piperidinyl)amino]-7,8-dihydropyrido[2,3-d]pyrimidin-4-yl}-4-methyl-N-1,3-thiazol-2-ylbenzamide] | statistically nonsignificant inhibition
7 | Cc1ccc(C(=O)NC(C)C)cc1-c1nc(N(C)CCCN(C)C)nc2c1ccc(=O)n2-c1c(F)cccc1F [Example 34, 3-{8-(2,6-difluorophenyl)-2-[[3-(dimethylamino)propyl](methyl)amino]-7-oxo-7,8-dihydropyrido[2,3-d]pyrimidin-4-yl}-4-methyl-N-(1-methylethyl)benzamide] | statistically significant inhibition
8 | CCCNC(=O)c1ccc(C)c(-c2nc(N3CCC(N4CCC(C)CC4)CC3)nc3c2ccc(=O)n3-c2c(F)cccc2F)c1 [Example 166, 3-[8-(2,6-difluorophenyl)-2-(4-methyl-1,4′-bipiperidin-1′-yl)-7-oxo-7,8-dihydropyrido[2,3-d]pyrimidin-4-yl]-4-methyl-N-propylbenzamide] | statistically significant inhibition
9 | Cc1ccc(C(=O)NCC(C)C)cc1-c1nc(N2CCC(N3CCC(C)CC3)CC2)nc2c1ccc(=O)n2-c1c(F)cccc1F [Example 168, 3-[8-(2,6-difluorophenyl)-2-(4-methyl-1,4′-bipiperidin-1′-yl)-7-oxo-7,8-dihydropyrido[2,3-d]pyrimidin-4-yl]-4-methyl-N-(2-methylpropyl)benzamide] | inactive
10 | CCCNC(=O)c1ccc(C)c(-c2nc(NCCCN(CC)CC)nc3c2ccc(=O)n3-c2c(F)cccc2F)c1 [Example 122, 3-[2-{[3-(diethylamino)propyl]amino}-8-(2,6-difluorophenyl)-7-oxo-7,8-dihydropyrido[2,3-d]pyrimidin-4-yl]-4-methyl-N-propylbenzamide] | statistically nonsignificant inhibition
11 | CCN(CC)CCCNc1nc(-c2cc(C(=O)NCC3CCCC3)ccc2C)c2ccc(=O)n(-c3c(F)cccc3F)c2n1 [Example 132, N-(cyclopentylmethyl)-3-[2-{[3-(diethylamino)propyl]amino}-8-(2,6-difluorophenyl)-7-oxo-7,8-dihydropyrido[2,3-d]pyrimidin-4-yl]-4-methylbenzamidetrifluoroacetate] | statistically nonsignificant inhibition
12 | Cc1ccc(C(=O)NC2CCCC2)cc1-c1nc(N2CCC(N3CCC(C)CC3)CC2)nc2c1ccc(=O)n2-c1c(F)cccc1F [Example 169, N-cyclopentyl-3-[8-(2,6-difluorophenyl)-2-(4-methyl-1,4′-bipiperidin-1′-yl)-7-oxo-7,8-dihydropyrido[2,3-d]pyrimidin-4-yl]-4-methylbenzamide] | statistically nonsignificant inhibition
13 | Cc1ccc(C(=O)Nc2nccs2)cc1-c1nc(N(C)CCCN(C)C)nc2c1ccc(=O)n2-c1c(F)cccc1F [Example 107, 3-{8-(2,6-difluorophenyl)-2-[[3-(dimethylamino)propyl](methyl)amino]-7-oxo-7,8-dihydropyrido[2,3-d]pyrimidin-4-yl}-4-methyl-N-1,3-thiazol-2-ylbenzamide] | statistically significant inhibition
14 | CNCCNc1nc(-c2cc(C(=O)NC(C)C)ccc2C)c2ccc(=O)n(-c3c(F)cccc3F)c2n1 [Example 57, 3-(8-(2,6-difluorophenyl)-2-{[2-(methylamino)ethyl]amino}-7-oxo-7,8-dihydropyrido[2,3-d]pyrimidin-4-yl)-4-methyl-N-(1-methylethyl)benzamide] | statistically significant inhibition
15 | CNC1CCN(c2nc(-c3cc(C(=O)NC(C)C)ccc3C)c3ccc(=O)n(-c4c(F)cccc4F)c3n2)CC1 [113(b), 3-{8-(2,6-difluorophenyl)-2-[4-(methylamino)-1-piperidinyl]-7-oxo-7,8-dihydropyrido[2,3-d]pyrimidin-4-yl}-4-methyl-N-(1-methylethyl)benzamide] | statistically nonsignificant inhibition
16 | Cc1ccc(C(=O)NCc2ccccc2)cc1-c1nc(N2CCC(N)CC2)nc2c1ccc(=O)n2-c1c(F)cccc1F [Example 71, 3-[2-(4-amino-1-piperidinyl)-8-(2,6-difluorophenyl)-7-oxo-7,8-dihydropyrido[2,3-d]pyrimidin-4-yl]-4-methyl-N-(phenylmethyl)benzamide] | statistically nonsignificant inhibition
17 | Cc1ccc(C(=O)NC2CC2)cc1-c1nc(NCc2ncc[nH]2)nc2c1ccc(=O)n2-c1c(F)cccc1F [Example 23, N-cyclopropyl-3-{8-(2,6-difluorophenyl)-2-[(1H-imidazol-2-ylmethyl)amino]-7-oxo-7,8-dihydropyrido[2,3-d]pyrimidin-4-yl}-4-methylbenzamide] | statistically nonsignificant inhibition
18 | CNCCNc1nc(-c2cc(C(=O)NCc3ccccc3)ccc2C)c2ccc(=O)n(-c3c(F)cccc3F)c2n1 [Example 59, 3-(8-(2,6-difluorophenyl)-2-{[2-(methylamino)ethyl]amino}-7-oxo-7,8-dihydropyrido[2,3-d]pyrimidin-4-yl)-4-methyl-N-(phenylmethyl)benzamide] | statistically significant inhibition
19 | CCN(CC)CCCNc1nc(-c2cc(C(=O)NC)ccc2C)c2ccc(=O)n(-c3c(F)cccc3F)c2n1 [Example 119, 3-[2-{[3-(diethylamino)propyl]amino}-8-(2,6-difluorophenyl)-7-oxo-7,8-dihydropyrido[2,3-d]pyrimidin-4-yl]-N,4-dimethylbenzamide] | statistically significant inhibition
20 | Cc1ccc(C(=O)NCC2CC2)cc1-c1nc(N2CCC(N)CC2)nc2c1ccc(=O)n2-c1c(F)cccc1F [Example 27, 3-[2-(4-amino-1-piperidinyl)-8-(2,6-difluorophenyl)-7-oxo-7,8-dihydropyrido[2,3-d]pyrimidin-4-yl]-N-(cyclopropylmethyl)-4-methylbenzamide] | statistically significant inhibition
21 | Cc1ccc(C(=O)Nc2ccc(F)cc2)cc1-c1nc(NCCN(C)C)nc2c1ccc(=O)n2-c1c(F)cccc1F [Example 112, 3-(8-(2,6-difluorophenyl)-2-{[2-(dimethylamino)ethyl]amino}-7-oxo-7,8-dihydropyrido[2,3-d]pyrimidin-4-yl)-N-(4-fluorophenyl)-4-methylbenzamide] | statistically nonsignificant inhibition
22 | CCN(CC)CCCNc1nc(-c2cc(C(=O)NCCF)ccc2C)c2ccc(=O)n(-c3c(F)cccc3F)c2n1 [Example 133, 3-[2-{[3-(diethylamino)propyl]amino}-8-(2,6-difluorophenyl)-7-oxo-7,8-dihydropyrido[2,3-d]pyrimidin-4-yl]-N-(2-fluoroethyl)-4-methylbenzamidetrifluoroacetate] | statistically significant inhibition
